The record followed here is US20200289554A1, “BIOORTHOGONAL COMPOUNDS COMPRISING A PROPARGYL GROUP FOR TREATING CANCER” (THE UNIVERSITY COURT OF THE UNIVERSITY OF EDINBURGH, priority 2016, published 2020).

Data set [1] relates to BxPC3 cells. Briefly: Prodrug safety dose-response cell viability (PrestoBlue), BxPC3. The format is cell-based. The following applies: Homo sapiens, BXPC-3, 120 h, 5 days, no catalyst. On the procedure:
(§1) These cell lines were selected as these are primary malignancies against which the parental drugs are currently prescribed.
(§2) The toxicities of each active agent and prodrugs were compared by performing dose-response studies. […] Cell viability was analysed by fluoresce intensity (λex=540 nm; λem=590 nm) after 60-90 min incubation with PrestoBlue™ Reagent (Life Technologies).

Data set [2] relates to HCT116 cells. Briefly: Prodrug safety dose-response cell viability (PrestoBlue), HCT116. The following applies: Homo sapiens, HCT-116, 120 h, 5 days, no catalyst. The format is cell-based. On the procedure:
as §1, §2

Data set [3] relates to BxPC3 cells. Briefly: BOOM conversion: prodrug + Pd0-resins in cell culture, cell viability, BxPC3. The format is cell-based, human. The note with it: Pd0-resin 1 mg/mL, 3 μM prodrug. On the procedure: (§3) Cell viabilities for each prodrug provided as a combination with palladium is presented in FIG. 16 in the right of each set of two bars. Data for prodrug in the absence of palladium catalyst is also provided (the left bar of each set of two bars) for comparison along with negative controls (from left to right: DMSO, Pd^0 and 5FU). Cells were incubated in tissue culture media containing 0.1% (v/v) DMSO and: Pd^0-resins (1 mg/mL, negative control); 3 μM (for BxPC3 cells) or 30 μM (for HCT116 cells) of prodrug (negative control); and Pd^0-resins (1 mg/mL)+3 μM (BxPC3) or 30 μM (HCT116) of each prodrug (BOOM reaction assay). […]
(§4) Following 5 days treatment, cells were incubated with PrestoBlue™ Cell Viability Reagent (Life Technologies) for 90 min. Fluorescence intensity values were related to the untreated cells (100% cell viability). […]
(§5) The toxigenic effect as a result of in situ generation of parental drug in cell culture was determined by incubating all cells in tissue culture media containing 0.1% (v/v) DMSO and a) Pd^0, Au, or Pd/Au-resin (1 mg/mL for all cells tested, negative control); b) prodrug (negative control); or c) Pd^0, Au, or Pd/Au-resin (1 mg/mL for all cells)+prodrug (reaction assay). […]
(§6) A dose response study was performed for each cell line keeping the quantity of Pd^0 resin constant (0.8 mg/mL for U87G and 1 mg/mL for the rest of cell lines). […]

Data set [4] relates to HCT116 cells. Briefly: BOOM conversion: prodrug + Pd0-resins in cell culture, cell viability, HCT116. It counts as cell-based, human. The following applies: Pd0-resin 1 mg/mL, 30 μM prodrug. On the procedure: as §3, §4, §5, §6
Another data set concerns A549 cells. As to the kind of experiment: Prodrug safety dose-response cell viability (PrestoBlue), A549. It counts as cell-based. The note with it: Homo sapiens, 120 h, 5 days, no catalyst. On the procedure: as §1, §2
The test system of another data set is T98 cells. Briefly: Prodrug safety dose-response cell viability (PrestoBlue), T98. It counts as cell-based. The following applies: Homo sapiens, 120 h, 5 days, no catalyst. On the procedure: as §1, §2
In another data set the test system is DU145 cells. Briefly: Prodrug safety dose-response cell viability (PrestoBlue), DU145. It counts as cell-based. The note with it: Homo sapiens, DU-145, 120 h, 5 days, no catalyst. On the procedure:
as §1, §2

For the next data set, the system named is A2780 cells. Briefly: Prodrug safety dose-response cell viability (PrestoBlue), A2780. The format is cell-based. The following applies: Homo sapiens, 120 h, 5 days, no catalyst. On the procedure:
as §1, §2

For data set [5], the system named is U87G cells. Briefly: Prodrug safety dose-response cell viability (PrestoBlue), U87G. The format is cell-based, human. The note with it: Homo sapiens, 120 h, read-out: EC50 (cell viability). On the procedure:
as §1, §2

Data set [6] has as its system U87G cells. As to the kind of experiment: BOOM conversion: prodrug + Pd0-resins in cell culture, cell viability, U87G. The following applies: Pd0-resin, SN-38 prodrug. It counts as cell-based, human. On the procedure: Following 5 days treatment, cells were incubated with PrestoBlue™ Cell Viability Reagent (Life Technologies) for 60-90 min. Fluorescence intensity values were related to the untreated cells (100% cell viability). […] Cells incubated in 0.1% (v/v) DMSO in media were used as untreated cell control.
The toxigenic effect as a result of in situ generation of parental drug in cell culture was determined by incubating all cells in tissue culture media containing 0.1% (v/v) DMSO and a) Pd^0, Au, or Pd/Au-resin (1 mg/mL for all cells tested, negative control); b) prodrug (negative control); or c) Pd^0, Au, or Pd/Au-resin (1 mg/mL for all cells)+prodrug (reaction assay). Cells incubated in 0.1% (v/v) DMSO in media was used as an untreated cell reference standard (100% viability). A PrestoBlue® cell viability assay as described above was carried out and fluorescent intensities compared to the untreated cell control.
(§7) A dose response study was performed for each cell line keeping the quantity of Pd^0 resin constant (0.8 mg/mL for U87G and 1 mg/mL for the rest of cell lines). […] Fluorescence intensity values (detected using a PerkinElmer EnVision 2101 multilabel reader with excitation filter at 540 nm and emissions filter at 590 nm) were determined relative to the untreated cell control.

In data set [7] the test system is MiaPaCa2 cells. As to the kind of experiment: Prodrug safety dose-response cell viability (PrestoBlue), MiaPaCa2. It counts as cell-based, human. The following applies: relative to Gemcitabine. On the procedure:
as §1, §2

In data set [8] the test system is MiaPaCa2 cells. As to the kind of experiment: BOOM conversion: prodrug + Pd0-resins in cell culture, cell viability, MiaPaCa2. It counts as cell-based, human. On the procedure: Cell viabilities for each prodrug provided as a combination with palladium is presented in FIG. 10 in the right of each set of two bars. Data for prodrug in the absence of palladium catalyst is also provided (the left bar of each set of two bars) for comparison along with negative controls (from left to right: DMSO, Pd^0 and Gemcitabine). Cells were incubated in tissue culture media containing 0.1% (v/v) DMSO and: Pd^0-resins (1 mg/mL, negative control); 0.03 μM of each prodrug (negative control); and Pd^0-resins (1 mg/mL)+0.03 μM of each prodrug (BOOM reaction assay). Cells incubated in 0.1% (v/v) DMSO in media were used as untreated cell control.
Following 5 days treatment, cells were incubated with PrestoBlue™ Cell Viability Reagent (Life Technologies) for 90 min. Fluorescence intensity values were related to the untreated cells (100% cell viability). Data are provided in FIG. 11 for cells incubated in tissue culture media containing 0.1% (v/v) DMSO and: Pd^0-resins (1 mg/mL, negative control); 0.003-0.3 μM of pPOBC-Gem (negative control); 0.003-0.3 μM of Gemcitabine (positive control); and Pd^0-resin (1 mg/mL)+pPOBC-Gem (BOOM reaction assay). Cells incubated in 0.1% (v/v) DMSO in media were used as untreated cell control.
The toxigenic effect as a result of in situ generation of parental drug in cell culture was determined by incubating all cells in tissue culture media containing 0.1% (v/v) DMSO and a) Pd^0, Au, or Pd/Au-resin (1 mg/mL for all cells tested, negative control); b) prodrug (negative control); or c) Pd^0, Au, or Pd/Au-resin (1 mg/mL for all cells)+prodrug (reaction assay). Cells incubated in 0.1% (v/v) DMSO in media was used as an untreated cell reference standard (100% viability). […]
as §7

As a reminder, the EC50 is the concentration that produces a half-maximal response. Consider `O=c1[nH]cc(F)c(=O)[nH]1` [5FU, 5-fluorouracil, reference compound], for which the EC50 was 140 nM in the data set on BxPC3 cells [1] and 1500 nM with HCT116 cells [2].
As for `C#CCOc1ncc(F)c(OCC#C)n1` [Bis-Pro-5FU, 2,4-bispropargyl-5-fluorouracil], the EC50 in the data set on BxPC3 cells [1] and with HCT116 cells [2] was above 100000 nM throughout. Besides, the “toxigenic effect of prodrug + Pd0 resins” value in the data set on BxPC3 cells [3] and in the data set on HCT116 cells [4] was “strong toxigenic effect” in each case.
`COc1cccc2c1C(=O)c1c(O)c3c(c(O)c1C2=O)C[C@@](O)(C(=O)CO)C[C@@H]3O[C@H]1C[C@H](N)[C@H](O)[C@H](C)O1` [Doxorubicin, reference compound]: the EC50 worked out at 105 nM with A549 cells, 320 nM in the data set with T98 cells and 23 nM in the data set on DU145 cells.
Regarding `O=C(c1cc(Cc2n[nH]c(=O)c3ccccc23)ccc1F)N1CCN(C(=O)C2CC2)CC1` [Olaparib, reference compound], the EC50 in the data set on A2780 cells is 1870 nM.
The same measure, in the same setting: under `C#CCOc1nnc(Cc2ccc(F)c(C(=O)N3CCN(C(=O)C4CC4)CC3)c2)c2ccccc12` [Prop-Olap, 4-[(3-[(4-cyclopropylcarbonyl)piperazin-4-yl]carbonyl)-4-fluorophenyl]methyl-phthalazin-1-oxypropargyl] stands above 100000 nM.
Consider `C#CCOc1cccc(OCC#C)c1COc1ccc2nc3c(c(CC)c2c1)Cn1c-3cc2c(c1=O)COC(=O)[C@]2(O)CC` [di-oPOB-SN-38, (S)-9-((2,6-bis(prop-2-yn-1-yloxy)benzyl)oxy)-4,11-diethyl-4-hydroxy-1,12-dihydro-14H-pyrano[3′,4′:6,7]indolizino[1,2-b]quinoline-3,14(4H)-dione], for which, in the data set on U87G cells [5], the EC50 came to 3150 nM. Further, the “toxigenic effect of prodrug + Pd0 resins” value in the data set with U87G cells [6] is “strong toxigenic effect”.
As for `C#CCOc1ccc(COC(=O)Nc2ccn(C3OC(CO)C(O)C3(F)F)c(=O)n2)cc1` (stereo not shown) [pPOBC-Gem, 4-proparglyoxybenzylcarbamoyl Gemcitabine], the “reduction in the cytotoxic effect relative the parent active agent” value with MiaPaCa2 cells [7] is recorded as 27 fold. The 50% effective concentration (EC50) with MiaPaCa2 cells [8] (Homo sapiens, MIA PaCa-2, 120 h, prodrug in combination with Pd0-resins 1 mg/mL, 5 days, read-out: EC50, prodrug + Pd-resins) came to 226 nM. The “toxigenic effect of prodrug + Pd0 resins” value with MiaPaCa2 cells [8] (Pd0-resin 1 mg/mL, 0.03 μM Gemcitabine prodrugs) was “strong toxigenic effect”.
